{
  "source": "patent US11957727B2",
  "about": "“Prevention of neuroinflammation associated memory loss using nutraceutical compositions” (priority 2020, dated 2024)",
  "origin": "cited, not measured here",
  "key": {"[1]": {"tested_on": "Nrf2 (+/+) primary peritoneal macrophages"}, "[2]": {"tested_on": "LPS-induced ARDS"}, "[3]": {"conditions": "animal studies"}, "[4]": {"tested_on": "endothelium of atherosclerotic plaque", "conditions": "PT injection, apoE(−/−) mice"}, "[5]": {"tested_on": "human umbilical vein VECs (HUVECs)"}, "[6]": {"tested_on": "sepsis induction with live Escherichia coli / endotoxin (LPS 0111:B4)", "conditions": "for concentration of IL-la: controls 1187.0±278.64 pg/ml"}, "[7]": {"tested_on": "nitric oxide", "conditions": "lipopolysaccharide-induced"}, "[8]": {"tested_on": "ulcerative colitis (UC)", "conditions": "50 and 100 mg/kg/day"}, "[9]": {"tested_on": "myocardial ischemia and reperfusion", "conditions": "10 mg/kg intravenously then 10 mg/kg/h infusion, rats"}, "[10]": {"conditions": "50 mg/kg, LPS 5 mg/kg 3 days later"}},
  "note": "Where two headings read alike, the source gives them in different places.",
  "data": [
    {"compound": "C[S+]([O-])CCCCN=C=S", "note": "(stereo not shown) [sulforaphane, 1-isothiocyanato-4-(methylsulfinyl)-butane]", "values": [
      {"measurement": "HO-1 expression", "setting": "[1]; LPS-stimulated Nrf2 (+/+) macrophages", "value": "significantly augmented"},
      {"measurement": "LPS-stimulated mRNA expression, protein expression and production of TNF-alpha, IL-1beta, COX-2 and iNOS", "setting": "[1]; pretreatment, Nrf2 (+/+) macrophages", "value": "potently inhibited"},
      {"measurement": "lactate dehydrogenase (LDH) activity", "setting": "[2]; [10]", "value": "significantly decreased"},
      {"measurement": "wet-to-dry ratio of the lungs", "setting": "[2]; [10]", "value": "significantly decreased"},
      {"measurement": "serum levels of interleukin-6 (IL-6) and tumor necrosis factor-α (TNF-α)", "setting": "[2]; 50 mg/kg, LPS 5 mg/kg 3 days later, ELISA", "value": "significantly decreased"},
      {"measurement": "prostaglandin E2 (PGE2) production", "setting": "[2]; mice with LPS-induced ALI", "value": "significantly inhibited"}
    ]},
    {"compound": "trans-3,5-dimethoxy-4-hydroxystilbene [pterostilbene]", "values": [
      {"measurement": "bioavailability", "setting": "[3]", "value": 80, "unit": "%"},
      {"measurement": "number of TUNEL-positive cells", "setting": "[4]", "value": "strongly decreased"},
      {"measurement": "protection against oxLDL-induced cell shrinkage, chromatin condensation, nuclear fragmentation and apoptosis", "setting": "[5]; HUVECs, oxLDL 200 μg/ml", "value": "protected against such injuries"},
      {"measurement": "expression of lectin-like oxLDL receptor-1 (LOX-1)", "setting": "[5]; in vitro and in vivo", "value": "inhibited"}
    ]},
    {"compound": "CC1=CC(=O)C(C(C)C)=CC1=O", "note": "[thymoquinone]", "values": [
      {"measurement": "concentration of IL-la", "setting": "[6]; 0.75 mg/kg thymoquinone dose", "value": "310.8 ± 70.93", "unit": "pg/mL"},
      {"measurement": "IL-10 levels", "setting": "[6]; 0.75 mg/kg thymoquinone, controls 5505.2±333.96 pg/ml", "value": "2885.0 ± 553.98", "unit": "pg/mL"},
      {"measurement": "concentration of IL-la", "setting": "[6]; 1 mg/kg group", "value": "428.3 ± 71.32", "unit": "pg/mL"},
      {"measurement": "levels of TNF-α and IL-2", "setting": "[6]; P values=0.1817 and 0.0851", "value": "relatively lower levels"},
      {"measurement": "reduction of mortality", "setting": "[6]; mice, thymoquinone before LPS or live E. coli challenge", "value": "80-90%"},
      {"measurement": "concentration of nitric oxide", "setting": "[7]", "value": "reduced significantly"}
    ]},
    {"compound": "Epigallocatechin-3-gallate [EGCG]", "values": [
      {"measurement": "release of IL-6 and IL-17", "setting": "[8]", "value": "reduce"},
      {"measurement": "myocardial damage and myeloperoxidase activity", "setting": "[9]", "value": "reduced"},
      {"measurement": "plasma IL-6 and creatine phosphokinase levels", "setting": "[9]", "value": "decreased"}
    ]}
  ]
}
